From article PMC12442245, “Activity Analysis of the P2X Receptor Antagonist PPADS against Signal Transducer and Activator of Transcription Proteins” (Chembiochem, 2025)

Biological target: T1, STAT5b (Homo sapiens, UniProt P51692)
T1 sequence (P51692 1-787): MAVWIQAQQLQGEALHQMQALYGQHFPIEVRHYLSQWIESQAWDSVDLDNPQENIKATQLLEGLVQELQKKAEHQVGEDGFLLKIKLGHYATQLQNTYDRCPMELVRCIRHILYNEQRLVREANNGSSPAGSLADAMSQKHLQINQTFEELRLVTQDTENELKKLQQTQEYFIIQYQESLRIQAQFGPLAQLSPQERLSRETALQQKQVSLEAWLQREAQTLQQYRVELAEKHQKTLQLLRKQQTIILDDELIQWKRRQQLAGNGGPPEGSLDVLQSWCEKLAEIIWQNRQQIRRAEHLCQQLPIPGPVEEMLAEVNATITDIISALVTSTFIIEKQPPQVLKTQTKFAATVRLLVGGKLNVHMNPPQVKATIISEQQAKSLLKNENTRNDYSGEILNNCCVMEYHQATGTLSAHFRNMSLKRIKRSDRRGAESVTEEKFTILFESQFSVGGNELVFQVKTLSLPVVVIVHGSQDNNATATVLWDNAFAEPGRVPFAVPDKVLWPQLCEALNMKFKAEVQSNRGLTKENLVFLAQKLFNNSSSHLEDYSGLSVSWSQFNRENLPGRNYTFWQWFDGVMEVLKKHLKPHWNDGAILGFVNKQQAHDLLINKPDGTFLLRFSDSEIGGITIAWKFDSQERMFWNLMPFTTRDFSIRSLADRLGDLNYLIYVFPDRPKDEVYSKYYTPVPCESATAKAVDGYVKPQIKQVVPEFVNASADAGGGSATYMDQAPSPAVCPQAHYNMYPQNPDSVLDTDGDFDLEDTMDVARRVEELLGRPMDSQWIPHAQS
Experiment: Competitive fluorescence polarization (FP) assay, STAT5b
Assay type: binding
Conditions: no reducing agent, 1 h
Description: Screening of chemical libraries
Screening of chemical libraries comprising approximately 5000 known bioactive compounds in fluorescence polarization-based assays against phosphorylation-dependent protein-protein interaction domains, including STAT proteins, has been described.[1] PPADS was purchased from Sigma-Aldrich, and iso-PPADS from Bio-Techne.
Fluorescence polarization assays
Competitive fluorescence polarization (FP) assays for STAT1,[2] STAT3,[3] STAT4,[4] STAT5a,[5] STAT5b[6] and STAT6[1] were performed as previously described. Briefly, peptide binding to proteins was analyzed using the following carboxyfluorescein (CF) -labelled pepti des at a concentration of 10 nM: STAT1: 5-CF-GpYDKPHVL-OH, STAT3: 5-CF-GpYLPQTV -NH2, STAT4: 5-CF-GpYLPQNID-OH, STAT5a and STAT5b: 5-CF-GpYLVLDKW-OH, STAT6: 5- […]
CFGp[…]-OH. Proteins were used at a final concentration representing the approximate Kd value for binding of the corresponding peptide to the protein, namely 65 nM for STAT1, 65 nM for STAT3, 35 nM for STAT4, 125 nM for STAT5a, 65 nM for STAT5b and 75 nM for STAT6. […] FP was measured using an Infinite F500 plate reader (Tecan) and measurements were converted into percent inhibition according to the binding curve equation. Curves were plotted and best fits calculated using OriginPro […]

In the case of Cc1nc(/N=N/c2ccc(S(=O)(=O)O)cc2S(=O)(=O)O)c(COP(=O)(O)O)c(C=O)c1O [PPADS, pyridoxalphosphate‐6‐azophenyl‐2',4'‐disulfonic acid], the IC50 is reported as 2000 ± 300 nM.

In the case of Cc1nc(/N=N/c2cc(S(=O)(=O)O)ccc2S(=O)(=O)O)c(COP(=O)(O)O)c(C=O)c1O [iso‐PPADS], the IC50 is reported as 1900 ± 100 nM.
